# Tested on: not listed separately
# Assay: Detergency against keratotic plugs: penetration of the sample into the keratotic plugs
# Set-up: species or system human
# Conditions: keratotic plugs kept in contact with a sample for 1 minute; Table 1 samples
# Method: (§1) 1. Evaluation of Detergency Against Keratotic Plugs During Cleansing
# (§2) Keratotic plugs in the nasal region were removed with “Biore Nose Pack (manufactured by Kao Corporation)”, the resulting keratotic plugs on the pack were gently taken out with tweezers.
# (§3) The resulting keratotic plugs were placed on a slide glass and were covered with a cover glass, and 0.05 mL of a sample was dropwise added to an edge of the cover glass. Consequently, the sample enters into the gap between the slide glass and the cover glass by capillary phenomenon and is brought into contact with the keratotic plugs. The contact of the keratotic plugs with the sample was recorded with a digital microscope (VHX-5000, manufactured by Keyence Corporation, magnification: x150), and the penetration of the sample into the keratotic plugs and the collapse state of the keratotic plugs were evaluated after one minute from the contact of the keratotic plugs with the sample. The results of each evaluation are shown in the columns “Detergency against keratotic plugs (penetration)” and “Detergency against keratotic plugs (during cleansing)” in Tables. The measurements were performed at 25° C.
# (§4) The penetration was relatively evaluated by 11 criteria from the state 1 “the sample hardly penetrated into the keratotic plug” to the state 11 “the sample penetrated to the center of the keratotic plug”. The collapsibility by the detergency against keratotic plugs was relatively evaluated by 11 criteria from the state 1 “almost no change is observed in the external appearance of the keratotic plug” to the state 11 “peeling or separation is observed in the area from the surface layer to the central portion of the keratotic plug (the initial appearance of the keratotic plug is not retained)”.
row,Compound,penetration into keratotic plugs (in words)
1,N=C(N)NCCC[C@H](N)C(=O)O [Arginine],penetrated into keratotic plugs
2,O=P([O-])([O-])O.[Na+].[Na+] [disodium hydrogen phosphate],hardly penetrated into keratotic plugs
3,O=C([O-])O.[Na+] [sodium hydrogen carbonate],hardly penetrated into keratotic plugs
4,O=P([O-])([O-])[O-].[Na+].[Na+].[Na+] [trisodium phosphate],hardly penetrated into keratotic plugs
5,sodium polyoxyethylene (2) lauryl ether sulfate [POE (2) sodium lauryl sulfate],hardly penetrated into the keratotic plugs

# Tested on: not listed separately
# Assay: Detergency against keratotic plugs after washing with water
# Set-up: species or system human
# Conditions: keratotic plugs kept in contact with water for 1 minute after the sample
# Source text: as §4
# 2. Evaluation of Detergency Against Keratotic Plugs after Washing with Water
# After one minute from the contact of the keratotic plugs with the sample, KimWipes (registered trademark) was brought into contact with an edge of the cover glass to remove the sample under the cover glass. Subsequently, 0.05 mL of water was dropwise added to an edge of the cover glass. The sample dropwise added with water was recorded with the digital microscope, and the collapse state of the keratotic plugs was evaluated after one minute from the contact of the keratotic plugs with water according to the criteria for evaluating collapsibility of the keratotic plugs. The results of the evaluation are shown in the column “Detergency against keratotic plugs (after washing with water)” in Table. The measurements were performed at 25° C.
row,Compound,collapse of the keratotic plugs on contact with water (in words)
1,N=C(N)NCCC[C@H](N)C(=O)O [Arginine],further swelled to cause a phenomenon of accelerating the collapse of the keratotic plugs
2,O=P([O-])([O-])O.[Na+].[Na+] [disodium hydrogen phosphate],the collapse of the keratotic plugs did not progress
3,O=C([O-])O.[Na+] [sodium hydrogen carbonate],the collapse of the keratotic plugs did not progress
4,O=P([O-])([O-])[O-].[Na+].[Na+].[Na+] [trisodium phosphate],the collapse of the keratotic plugs did not progress

# Tested on: insoluble protein (zein protein)
# Assay: Evaluation of effect of suppressing protein aggregation
# Conditions: Table 1 sample
# Method: <<Evaluation of Effect of Suppressing Protein Aggregation>>
# Thirty milliliters of a sample and 0.06 g of an insoluble protein (zein protein) were placed in a 35-mL standard glass bottle, and the concentration of the insoluble protein was adjusted to 0.2 mass % (test sample). Separately, a standard sample was prepared by using water instead of the sample and adjusting the concentration of the insoluble protein to 0.2 mass %. Subsequently, the standard glass bottles were sufficiently shaken and stirred up and down (shake width: 15 cm, 20 times at a rate of 5 times for 3 seconds) in a thermostatic chamber of 25° C. and were left to stand per 3 minutes. The precipitation state of the insoluble protein was then visually verified, and the ratio of the amount of the precipitated standard sample to the amount of the precipitated test sample (the height of the precipitate in each standard glass bottle was measured as the precipitation amount), (precipitation amount of standard sample)/(precipitation amount of test sample), was calculated. A higher ratio indicates a higher effect of suppressing protein aggregation.
row,Compound,action on proteins (in words)
1,sodium polyoxyethylene (2) lauryl ether sulfate [POE (2) sodium lauryl sulfate],the action on proteins was strong to dissolve the proteins

# Tested on: not listed separately
# Assay: Detergency against keratotic plugs during cleansing: collapse state of the keratotic plugs
# Set-up: species or system human
# Conditions: keratotic plugs kept in contact with a sample for 1 minute; Table 1 samples
# Method: as §1, §2, §3, §4
row,Compound,collapse of the keratotic plugs in contact with the sample (in words)
1,O=P([O-])([O-])O.[Na+].[Na+] [disodium hydrogen phosphate],the collapse of the keratotic plugs did not progress
2,O=C([O-])O.[Na+] [sodium hydrogen carbonate],the collapse of the keratotic plugs did not progress
3,O=P([O-])([O-])[O-].[Na+].[Na+].[Na+] [trisodium phosphate],the collapse of the keratotic plugs did not progress
4,sodium polyoxyethylene (2) lauryl ether sulfate [POE (2) sodium lauryl sulfate],the collapse of the keratotic plugs did not progress
